# Assay results as given in patent US5834433A, “Compounds and pharmaceutical uses of peptides of bombesin and GRP” (Merrell Pharmaceuticals Inc., priority 1996, dated 1998).
# Non-standard residues stand in square brackets, D forms with d. Residues, ends and D or L forms follow the SMILES beside them. *: point of attachment. Palmitoyl = CCCCCCCCCCCCCCCC(=O)*; Lauroyl = CCCCCCCCCCCC(=O)*; Octanoyl = CCCCCCCC(=O)*
# Biological target: T1, bombesin receptor (Mus musculus, UniProt P21729)
# T1 construct: The pancreata from one or more mice were pooled, minced, and homogenized; from tissue; host or cells: mouse pancreas (membrane pellet in A1; chopped tissue in A2)
# Assay: Competition at the bombesin receptor for iodinated GRP (125I-GRP), mouse pancreas membranes
# Parameters: species or system mice
# Conditions: 125I-GRP competition, read-out: Binding KD
# Procedure: The pancreata from one or more mice were pooled, minced, and homogenized in 50 mM HEPES (pH 7.4) containing 120 mM NaCl and 5 mM KC1 at 4° C. and centrifuged at 37,500 ×g for 15 minutes. The pellet was resuspended in 50 mM HEPES (pH 7.4) containing 10 mM EDTA and 300 mM KC1 and incubated for 30 minutes at 4° C. The suspension was centrifuged as above and the pellet was washed two times in 50 mM HEPES (pH 7.4) containing protease inhibitors (10 uM phenylmethylsulfonyl fluoride, 1 uM thiorphan, 40 ug/ml bacitracin, 10 mM iodoacetimide and 4 ug/ml leupeptin), and again centrifuged. The tissue was then resuspended in incubation buffer (1 ml per 4 mg pancreas) and incubated for 15 minutes at room temperature, then 250 ul was added to each assay tube to commence the assay. The assay tubes contained incubation buffer consisting of 50 mM HEPES (pH 7.4), 0.5% BSA, protease inhibitors, 2 mM MnCl2, 1 uM somatostatin, and concentrations of ^125 I-GRP and peptides as needed in a final volume of 500 ul. The assay was allowed to proceed to equilibrium for 90 minutes at room temperature. After this time, the contents of each tube was rapidly filtered over Whatman GF/B filters presoaked in 0.1% polyethyleneimine and the filters were rapidly washed three times with ice-cold 50 mM HEPES (pH 7.4). Filter-bound radioactivity was quantitated in a gamma counter. Competition of iodinated GRP binding by test compounds or standards was expressed as a percentage of ^125 I-GRP binding in the absence of peptide. Affinity and maximal binding were calculated with Ligand (Biosoft, Cambridge, UK).
# T1 sequence (P21729 whole entry): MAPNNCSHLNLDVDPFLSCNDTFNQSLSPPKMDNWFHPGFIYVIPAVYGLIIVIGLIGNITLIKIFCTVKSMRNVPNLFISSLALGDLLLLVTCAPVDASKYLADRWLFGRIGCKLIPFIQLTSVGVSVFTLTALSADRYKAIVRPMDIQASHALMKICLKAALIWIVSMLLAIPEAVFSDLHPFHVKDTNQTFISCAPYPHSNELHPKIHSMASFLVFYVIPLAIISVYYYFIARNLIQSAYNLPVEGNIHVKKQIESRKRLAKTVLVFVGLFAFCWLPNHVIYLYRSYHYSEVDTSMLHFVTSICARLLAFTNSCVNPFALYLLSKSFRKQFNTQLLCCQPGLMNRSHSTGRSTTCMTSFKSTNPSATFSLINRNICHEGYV
row,SMILES,Kd
1,CCCCCCCCCCCC(=O)N[C@@H](Cc1c[nH]c2ccccc12)C(=O)N[C@@H](C)C(=O)N[C@H](C(=O)N[C@H](C)C(=O)N[C@@H](Cc1c[nH]cn1)C(N)=O)C(C)C [Nα-LaurylW A V a H #] (Lauroyl-WAV[dA]H-NH2),> 10000 nM
2,CC(=O)N[C@@H](Cc1c[nH]c2ccccc12)C(=O)N[C@@H](C)C(=O)N[C@H](C(=O)N[C@H](C)C(=O)N[C@@H](Cc1c[nH]cn1)C(N)=O)C(C)C [Nα-AcetylW A V a H #] (Ac-WAV[dA]H-NH2),> 10000 nM
3,CCCCCCCC(=O)N[C@@H](Cc1c[nH]c2ccccc12)C(=O)N[C@@H](C)C(=O)N[C@H](C(=O)N[C@H](C)C(=O)N[C@@H](Cc1c[nH]cn1)C(N)=O)C(C)C [Nα-OctylW A V a H #] (Octanoyl-WAV[dA]H-NH2),> 10000 nM
4,"CCCCCCCCCCCCCCCC(=O)N[C@@H](CCC(N)=O)C(=O)N[C@@H](Cc1c[nH]c2ccccc12)C(=O)N[C@@H](C)C(=O)N[C@H](C(=O)N[C@H](C)C(=O)N[C@@H](Cc1c[nH]cn1)C(=O)N[C@@H](CC(C)C)C(N)=O)C(C)C [Example 3, N-(Palmitoyl)-Gln-Trp-Ala-Val-ala-His-Leu-NH2] (Palmitoyl-QWAV[dA]HL-NH2)",350 nM
5,CCCCCCCCCCCCCCCC(=O)N[C@@H](CCC(N)=O)C(=O)N[C@@H](Cc1c[nH]c2ccccc12)C(=O)N[C@@H](C)C(=O)N[C@H](C(=O)N[C@H](C)C(=O)N[C@@H](Cc1c[nH]cn1)C(N)=O)C(C)C [Nα-PalmitylQ W A V a H #] (Palmitoyl-QWAV[dA]H-NH2),> 10000 nM
6,CC(=O)N[C@@H](CCC(N)=O)C(=O)N[C@@H](Cc1c[nH]c2ccccc12)C(=O)N[C@@H](C)C(=O)N[C@H](C(=O)N[C@H](C)C(=O)N[C@@H](Cc1c[nH]cn1)C(N)=O)C(C)C [Nα-AcetylQ W A V a H #] (Ac-QWAV[dA]H-NH2),1500 nM
7,CCCCCCCCCCCC(=O)N[C@@H](CCC(N)=O)C(=O)N[C@@H](Cc1c[nH]c2ccccc12)C(=O)N[C@@H](C)C(=O)N[C@H](C(=O)N[C@H](C)C(=O)N[C@@H](Cc1c[nH]cn1)C(N)=O)C(C)C [Nα-LaurylQ W A V a H #] (Lauroyl-QWAV[dA]H-NH2),> 10000 nM
8,CC(=O)N[C@@H](CCC(N)=O)C(=O)N[C@@H](Cc1c[nH]c2ccccc12)C(=O)N[C@@H](C)C(=O)N[C@H](C(=O)N[C@H](C)C(=O)N[C@@H](Cc1c[nH]cn1)C(=O)N[C@@H](CC(C)C)C(N)=O)C(C)C [Nα-AcetylQ W A V a H L #] (Ac-QWAV[dA]HL-NH2),69 nM
9,"CCCCCCCC(=O)N[C@@H](CCC(N)=O)C(=O)N[C@@H](Cc1c[nH]c2ccccc12)C(=O)N[C@@H](C)C(=O)N[C@H](C(=O)N[C@H](C)C(=O)N[C@@H](Cc1c[nH]cn1)C(N)=O)C(C)C [Example 4, N-(n-Octanoyl)-Gln-Trp-Ala-Val-ala-His-NH2] (Octanoyl-QWAV[dA]H-NH2)",58 nM
10,"CCCCCCCC(=O)N[C@@H](CCC(N)=O)C(=O)N[C@@H](Cc1c[nH]c2ccccc12)C(=O)N[C@@H](C)C(=O)N[C@H](C(=O)N[C@H](C)C(=O)N[C@@H](Cc1c[nH]cn1)C(=O)N[C@@H](CC(C)C)C(N)=O)C(C)C [Example 1, N-(n-Octanoyl)-Gln-Trp-Ala-Val-ala-His-Leu-NH2] (Octanoyl-QWAV[dA]HL-NH2)",5 nM
11,CCCCCCCCCCCCCCCC(=O)N[C@@H](Cc1c[nH]c2ccccc12)C(=O)N[C@@H](C)C(=O)N[C@H](C(=O)N[C@H](C)C(=O)N[C@@H](Cc1c[nH]cn1)C(N)=O)C(C)C [Nα-PalmitylW A V a H #] (Palmitoyl-WAV[dA]H-NH2),> 10000 nM
12,"CCCCCCCCCCCC(=O)N[C@@H](CCC(N)=O)C(=O)N[C@@H](Cc1c[nH]c2ccccc12)C(=O)N[C@@H](C)C(=O)N[C@H](C(=O)N[C@H](C)C(=O)N[C@@H](Cc1c[nH]cn1)C(=O)N[C@@H](CC(C)C)C(N)=O)C(C)C [Example 2, N-(Lauroyl)-Gln-Trp-Ala-Val-ala-His-Leu-NH2] (Lauroyl-QWAV[dA]HL-NH2)",320 nM
